Results on 35 compounds are retold here after patent publication US9247759B2, “Identification of human T2R receptors that respond to bitter compounds that elicit the bitter taste in compositions, and the use thereof in assays to identify compounds that inhibit (block) bitter taste in compositions and use thereof” (SENOMYX, INC., priority 2007, dated 2016).

A word on the IC50: it is the point on the concentration scale where inhibition reaches its midpoint.

hT2R8, sequence (Q9NYW2 whole entry): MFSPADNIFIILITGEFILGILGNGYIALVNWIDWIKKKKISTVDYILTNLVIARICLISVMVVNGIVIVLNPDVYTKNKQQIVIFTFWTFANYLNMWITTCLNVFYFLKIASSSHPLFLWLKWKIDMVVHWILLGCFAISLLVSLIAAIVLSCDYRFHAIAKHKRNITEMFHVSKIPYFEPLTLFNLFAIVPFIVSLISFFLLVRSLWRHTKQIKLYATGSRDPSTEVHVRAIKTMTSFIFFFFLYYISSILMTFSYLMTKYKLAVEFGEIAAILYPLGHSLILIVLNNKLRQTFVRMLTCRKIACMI

The first assay deals with hT2R8 (Homo sapiens (Human), UniProt Q9NYW2). In words: hT2R8 antagonist high-throughput FLIPR assay, stable cell line with G16g44, agonist andrographolide. It is filed as cell-based. The settings on record: Table A; read-out: hT2R8 IC50. From the text:
After a ligand is identified for a particular hT2R, a HEK293 cell line stably expressing both the hT2R and G16gust44 are generated, facilitating future screening assays to identify other ligands that activate the particular hT2R or which modulate (block or enhance) the activation of this hT2R by another bitter ligand such as a bitter compound contained in coffee. This avoids the need for transient transfection.
To identify antagonists, cell lines stably expressing hT2R8 and hT2R14, respectively, together with the promiscuous chimeric G16g44 protein were generated as described in previous patent applications. A high-throughput assay was established using the stable cell lines and FLIPR (Fluorescent Imaging Plate Reader). An agonist of hT2R8 or hT2R14 was used to activate the receptors up to 70-80% of their respective maximal activity. For hT2R8, the agonist used was andrographolide (200 […]); for hT2R14, it was aristolochic acid (3 μM). To identify antagonists, compounds with diverse chemical structures were added together with the agonist.
To identify antagonists, cell lines stably expressing hT2R8 together with the promiscuous chimeric G16g44 protein were generated as described in previous patent applications. A high-throughput assay was established using the stable cell lines and FLIPR (Fluorescent Imaging Plate Reader). An agonist of hT2R8 was used to activate the receptors up to 70-80% of their respective maximal activity. For hT2R8, the agonist used was andrographolide (200 μM). To identify antagonists, compounds with diverse chemical structures were added together with the agonist.
For `Cc1cc(C(=O)Nc2cnn(Cc3c(C)noc3C)c2)c(C)o1` [Example 4-53, N-(1-((3,5-dimethylisoxazol-4-yl)methyl)-1H-pyrazol-4-yl)-2,5-dimethylfuran-3-carboxamide], the IC50 came out at 3030 nM.

`Cc1ccc(C(=O)Nc2cnn(Cc3c(C)noc3C)c2)o1` [Example 4-54, N-(1-((3,5-dimethylisoxazol-4-yl)methyl)-1H-pyrazol-4-yl)-5-methylfuran-2-carboxamide]: the IC50 was 3190 nM.

With `Cc1noc(C)c1Cn1cc(NC(=O)CCc2ccccc2)cn1` [Example 4-55, N-(1-((3,5-dimethylisoxazol-4-yl)methyl)-1H-pyrazol-4-yl)-3-phenylpropanamide], the IC50 came out at 490 nM.

Regarding `Cc1noc(C)c1Cn1cc(NC(=O)CCCc2ccccc2)cn1` [Example 4-56, N-(1-((3,5-dimethylisoxazol-4-yl)methyl)-1H-pyrazol-4-yl)-4-phenylbutanamide], the IC50 is 830 nM.

`Cc1noc(C)c1Cn1cc(NC(=O)Cc2ccoc2)cn1` [Example 4-58, N-(1-((3,5-dimethylisoxazol-4-yl)methyl)-1H-pyrazol-4-yl)-2-(furan-3-yl)acetamide]: the IC50 amounted to 8660 nM.

In the case of `CCOc1cccc(C(=O)Nc2cnn(Cc3c(C)noc3C)c2)c1` [Example 4-59, N-(1-((3,5-dimethylisoxazol-4-yl)methyl)-1H-pyrazol-4-yl)-3-ethoxybenzamide], the IC50 came to 220 nM.

Consider `CCC(C)CC(=O)Nc1cnn(Cc2c(C)noc2C)c1` (stereo not drawn) [Example 4-60, N-(1-((3,5-dimethylisoxazol-4-yl)methyl)-1H-pyrazol-4-yl)-3-methylpentanamide], for which the IC50 turned out to be 1940 nM.

`Cc1noc(C)c1Cn1cc(NC(=O)C2CCCCC2)cn1` [Example 4-61, N-(1-((3,5-dimethylisoxazol-4-yl)methyl)-1H-pyrazol-4-yl)cyclohexanecarboxamide]: the IC50 came out at 2200 nM.

For `CNc1cnn(Cc2c(C)noc2C)c1` [Example 4-63, 1-((3,5-dimethylisoxazol-4-yl)methyl)-N-methyl-1H-pyrazol-4-amine], the IC50 turned out to be 8760 nM.

With `COc1cccc(CN(Cc2cccc(OC)c2OC)c2cnn(Cc3c(C)noc3C)c2)c1OC` [Example 4-64, N,N-bis(2,3-dimethoxybenzyl)-1-((3,5-dimethylisoxazol-4-yl)methyl)-1H-pyrazol-4-amine], the IC50 worked out at 12600 nM.

On to `Cc1noc(C)c1Cn1cc(N(C)C(=O)C(C)c2ccccc2)cn1` (stereo not drawn) [Example 4-65, N-(1-((3,5-dimethylisoxazol-4-yl)methyl)-1H-pyrazol-4-yl)-N-methyl-2-phenylpropanamide], for which the IC50 came to 2810 nM.

On to `Cc1noc(C)c1Cn1cc(N(C)C(=O)C2(c3ccccc3)CC2)cn1` [Example 4-66, N-(1-((3,5-dimethylisoxazol-4-yl)methyl)-1H-pyrazol-4-yl)-N-methyl-1-phenylcyclopropanecarboxamide], for which the IC50 is 8230 nM.

Consider `CO[C@H](C(=O)Nc1cnn(Cc2c(C)noc2C)c1)c1ccccc1` [Example 4-67, (S)-N-(1-((3,5-dimethylisoxazol-4-yl)methyl)-1H-pyrazol-4-yl)-2-methoxy-2-phenylacetamide], for which the IC50 was 8600 nM.

Take `CO[C@@H](C(=O)Nc1cnn(Cc2c(C)noc2C)c1)c1ccccc1` [Example 4-68, (R)-N-(1-((3,5-dimethylisoxazol-4-yl)methyl)-1H-pyrazol-4-yl)-2-methoxy-2-phenylacetamide]: the half-inhibitory concentration (IC50) came out at 5000 nM.

In the case of `COc1cc(CC(=O)Nc2cnn(Cc3c(C)noc3C)c2)ccc1O` [Example 4-69, N-(1-((3,5-dimethylisoxazol-4-yl)methyl)-1H-pyrazol-4-yl)-2-(4-hydroxy-3-methoxyphenyl)acetamide], the IC50 came to 4700 nM.

For `COc1ccc(CC(=O)Nc2cnn(Cc3c(C)noc3C)c2)cc1O` [Example 4-70, N-(1-((3,5-dimethylisoxazol-4-yl)methyl)-1H-pyrazol-4-yl)-2-(3-hydroxy-4-methoxyphenyl)acetamide], the IC50 is 3100 nM.

For the compound `COc1cccc(C(=O)Nc2cnn(Cc3c(C)noc3C)c2)c1O` [Example 4-71, N-(1-((3,5-dimethylisoxazol-4-yl)methyl)-1H-pyrazol-4-yl)-2-hydroxy-3-methoxybenzamide], the IC50 worked out at 2900 nM.

As to `Cc1noc(C)c1Cn1cc(NC(=O)c2ccc3ocnc3c2)cn1` [Example 4-72, N-(1-((3,5-dimethylisoxazol-4-yl)methyl)-1H-pyrazol-4-yl)benzo[d]oxazole-5-carboxamide], the IC50 is 2600 nM.

Consider `COc1cc(C(=O)Nc2cnn(Cc3c(C)noc3C)c2)cc(O)c1O` [Example 4-73, N-(1-((3,5-dimethylisoxazol-4-yl)methyl)-1H-pyrazol-4-yl)-3,4-dihydroxy-5-methoxybenzamide], for which the IC50 turned out to be 2200 nM.

Regarding `COc1cc(C(=O)Nc2cnn(Cc3c(C)noc3C)c2)ccc1C` [Example 4-74, N-(1-((3,5-dimethylisoxazol-4-yl)methyl)-1H-pyrazol-4-yl)-3-methoxy-4-methylbenzamide], the IC50 came to 2200 nM.

In the case of `Cc1cc2cc(C(=O)Nc3cnn(Cc4c(C)noc4C)c3)ccc2o1` [Example 4-75, N-(1-((3,5-dimethylisoxazol-4-yl)methyl)-1H-pyrazol-4-yl)-2-methylbenzofuran-5-carboxamide], the IC50 turned out to be 2100 nM.

For the compound `Cc1noc(C)c1Cn1cc(NC(=O)c2cccc3nccnc23)cn1` [Example 4-76, N-(1-((3,5-dimethylisoxazol-4-yl)methyl)-1H-pyrazol-4-yl)quinoxaline-5-carboxamide], the IC50 stood at 1700 nM.

Regarding `Cc1noc(C)c1Cn1cc(NC(=O)c2ccc3occc3c2)cn1` [Example 4-77, N-(1-((3,5-dimethylisoxazol-4-yl)methyl)-1H-pyrazol-4-yl)benzofuran-5-carboxamide], the IC50 came out at 1400 nM.

Take `Cc1noc(C)c1Cn1cc(NC(=O)c2ccc3c(c2)OC(F)(F)O3)cn1` [Example 4-78, N-(1-((3,5-dimethylisoxazol-4-yl)methyl)-1H-pyrazol-4-yl)-2,2-difluorobenzo[d][1,3]dioxole-5-carboxamide]: the IC50 came out at 1300 nM.

As to `Cc1nc2cc(C(=O)Nc3cnn(Cc4c(C)noc4C)c3)ccc2[nH]1` [Example 4-79, N-(1-((3,5-dimethylisoxazol-4-yl)methyl)-1H-pyrazol-4-yl)-2-methyl-1H-benzo[d]imidazole-5-carboxamide], the IC50 amounted to 1000 nM.

As for `Cc1noc(C)c1Cn1cc(NC(=O)c2cccc(Cl)c2)cn1` [Example 4-80, 3-chloro-N-(1-((3,5-dimethylisoxazol-4-yl)methyl)-1H-pyrazol-4-yl)benzamide], the IC50 amounted to 900 nM.

Take `CCc1nc2cc(C(=O)Nc3cnn(Cc4c(C)noc4C)c3)ccc2o1` [Example 4-81, N-(1-((3,5-dimethylisoxazol-4-yl)methyl)-1H-pyrazol-4-yl)-2-ethylbenzo[d]oxazole-5-carboxamide]: the IC50 amounted to 800 nM.

As to `Cc1noc(C)c1Cn1cc(NC(=O)c2ccc3nccnc3c2)cn1` [Example 4-82, N-(1-((3,5-dimethylisoxazol-4-yl)methyl)-1H-pyrazol-4-yl)quinoxaline-6-carboxamide], the IC50 is 800 nM.

Turning to `Cc1nc2ccc(C(=O)Nc3cnn(Cc4c(C)noc4C)c3)cc2o1` [Example 4-83, N-(1-((3,5-dimethylisoxazol-4-yl)methyl)-1H-pyrazol-4-yl)-2-methylbenzo[d]oxazole-6-carboxamide], the IC50 is 700 nM.

For `Cc1noc(C)c1Cn1cc(NC(=O)c2ccc3[nH]nnc3c2)cn1` [Example 4-87, N-(1-((3,5-dimethylisoxazol-4-yl)methyl)-1H-pyrazol-4-yl)-1H-benzo[d][1,2,3]triazole-5-carboxamide], the IC50 stood at 600 nM.

Turning to `Cc1noc(C)c1Cn1cc(NC(=O)c2ccc3c(c2)OCCO3)cn1` [Example 4-88, N-(1-((3,5-dimethylisoxazol-4-yl)methyl)-1H-pyrazol-4-yl)-2,3-dihydrobenzo[b][1,4]dioxine-6-carboxamide], the IC50 amounted to 400 nM.

For the compound `Cc1noc(C)c1Cn1cc(NC(=O)c2cc3c(cc2Br)OCCO3)cn1` [Example 4-89, 7-bromo-N-(1-((3,5-dimethylisoxazol-4-yl)methyl)-1H-pyrazol-4-yl)-2,3-dihydrobenzo[b][1,4]dioxine-6-carboxamide], the IC50 worked out at 300 nM.

For the compound `Cc1noc(C)c1Cn1cc(NC(=O)c2cc3c(cc2Cl)OCCO3)cn1` [Example 4-90, 7-chloro-N-(1-((3,5-dimethylisoxazol-4-yl)methyl)-1H-pyrazol-4-yl)-2,3-dihydrobenzo[b][1,4]dioxine-6-carboxamide], the IC50 came to 100 nM.

For the compound `Cc1noc(C)c1Cn1cc(NC(=O)c2cc(Cl)c3c(c2)OCCO3)cn1` [Example 4-91, 8-chloro-N-(1-((3,5-dimethylisoxazol-4-yl)methyl)-1H-pyrazol-4-yl)-2,3-dihydrobenzo[b][1,4]dioxine-6-carboxamide], the IC50 was 100 nM.

Still in this assay, the particulars now being: read-out: IC50 on hT2R8 bitter receptor.
Regarding `COc1cc(C(=O)Nc2cnn(Cc3c(C)noc3C)c2)cc(O)c1O` [Example 4-73, N-(1-((3,5-dimethylisoxazol-4-yl)methyl)-1H-pyrazol-4-yl)-3,4-dihydroxy-5-methoxybenzamide], the IC50 was found to be 2200 nM.

Turning to `COc1cc(C(=O)Nc2cnn(Cc3c(C)noc3C)c2)cc2c1OCO2` [Example 4-92, N-(1-((3,5-dimethylisoxazol-4-yl)methyl)-1H-pyrazol-4-yl)-7-methoxybenzo[d][1,3]dioxole-5-carboxamide], the IC50 worked out at 700 nM.
